In patent publication US20260158017A1, “KIF18A INHIBITOR” (WIGEN BIOMEDICINE TECHNOLOGY (SHANGHAI) CO., LTD., priority 2021, published 2026):

molecular target: T1, Recombinant human KIF18A (1-467His-tagged) protein (Homo sapiens, UniProt Q8NI77); assay: KIF18A enzyme assay (microtubule-stimulated ATPase activity, ADP-Glo); format: biochemical; conditions: 30 nM KIF18A, 75 μM ATP, 30 μg/mL pig microtubules; read-out: Inhibitory activity against KIF18A IC50
T1 construct: Recombinant human KIF18A (1-467His-tagged) protein; His; made in house
T1 sequence (Q8NI77 1-467): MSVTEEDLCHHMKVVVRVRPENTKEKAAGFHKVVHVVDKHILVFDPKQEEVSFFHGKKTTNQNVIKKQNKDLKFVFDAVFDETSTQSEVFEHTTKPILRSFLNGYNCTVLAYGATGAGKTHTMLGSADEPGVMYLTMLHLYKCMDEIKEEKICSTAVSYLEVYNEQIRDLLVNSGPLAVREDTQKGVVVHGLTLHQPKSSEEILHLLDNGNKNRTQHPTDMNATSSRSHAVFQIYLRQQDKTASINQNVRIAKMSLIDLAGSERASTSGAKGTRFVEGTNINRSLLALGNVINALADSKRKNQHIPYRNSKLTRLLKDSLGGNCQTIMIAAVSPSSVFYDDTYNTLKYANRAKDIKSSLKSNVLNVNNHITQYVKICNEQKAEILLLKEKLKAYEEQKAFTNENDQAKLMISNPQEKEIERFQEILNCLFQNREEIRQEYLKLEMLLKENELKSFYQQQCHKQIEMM
T1 sequence (P02550 whole entry partner): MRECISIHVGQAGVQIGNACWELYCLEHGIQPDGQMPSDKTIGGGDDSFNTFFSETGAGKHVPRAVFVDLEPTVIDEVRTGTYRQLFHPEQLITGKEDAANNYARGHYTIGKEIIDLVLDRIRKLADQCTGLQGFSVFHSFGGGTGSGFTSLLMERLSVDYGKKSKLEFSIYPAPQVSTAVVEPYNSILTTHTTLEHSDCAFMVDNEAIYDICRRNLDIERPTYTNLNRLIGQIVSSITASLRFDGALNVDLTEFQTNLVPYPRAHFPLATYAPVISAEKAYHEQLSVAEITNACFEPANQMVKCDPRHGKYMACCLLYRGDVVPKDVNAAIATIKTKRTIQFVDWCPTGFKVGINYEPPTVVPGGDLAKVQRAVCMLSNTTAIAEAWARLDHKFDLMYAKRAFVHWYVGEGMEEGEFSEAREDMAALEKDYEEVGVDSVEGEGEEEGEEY
T1 sequence (P02554 whole entry partner): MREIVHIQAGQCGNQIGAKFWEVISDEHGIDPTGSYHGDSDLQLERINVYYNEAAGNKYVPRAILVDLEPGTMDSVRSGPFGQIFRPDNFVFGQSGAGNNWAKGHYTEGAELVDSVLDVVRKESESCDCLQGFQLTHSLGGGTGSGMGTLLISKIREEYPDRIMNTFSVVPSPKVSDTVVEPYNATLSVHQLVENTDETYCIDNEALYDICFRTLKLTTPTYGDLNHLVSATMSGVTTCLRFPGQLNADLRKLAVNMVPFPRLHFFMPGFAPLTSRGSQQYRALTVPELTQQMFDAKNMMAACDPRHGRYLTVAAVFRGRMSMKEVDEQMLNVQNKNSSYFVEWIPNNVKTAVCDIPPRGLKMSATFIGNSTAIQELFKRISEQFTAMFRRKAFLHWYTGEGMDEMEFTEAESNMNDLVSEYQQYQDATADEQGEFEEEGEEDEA
In short: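 Buffer 15 mM Tris pH 7.5, 10 mM MgCl2, 0.01% Pluronic F-68, 1 μM paclitaxel, 30 μg/mL pig microtubules; reactions at room temperature. IC50 from inhibition relative to DMSO.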

| Compound | IC50 [nM] |
| --- | --- |
| COc1ccc(NC(=O)c2cnc(NS(=O)(=O)CCO)cc2N2CCC3(CC2)CC3)nc1N1CCC2(CC2)C1 [Compound 294] | ≤ 100 |
| COc1ccc(NC(=O)c2cnc(NS(=O)(=O)CCO)cc2N2CCC3(CC2)CC3)nc1N1CCC(F)CC1 [Compound 297] | ≤ 100 |
| COc1ccc(NC(=O)c2cnc(NS(=O)(=O)CCO)cc2N2CCC3(CC2)CC3)nc1NC(C)(C)CO [Compound 299] | ≤ 100 |
| COc1ccc(NC(=O)c2cnc(NS(=O)(=O)[C@@H](C)CO)cc2N2CCC3(CC2)CC3)nc1N1CCC(F)(F)CC1 [Compound 301] | ≤ 100 |
| COc1ccc(NC(=O)c2cnc(NS(=O)(=O)[C@@H](C)CO)cc2N2CCC3(CC2)CC3)nc1N1CCO[C@H](C)C1 [Compound 303] | ≤ 100 |
| COc1ccc(NC(=O)c2cnc(NS(=O)(=O)[C@H](C)CO)cc2N2CCC3(CC2)CC3)nc1N1CCO[C@H](C)C1 [Compound 304] | ≤ 100 |
| COc1ccc(NC(=O)c2cnc(S(=O)(=O)NCCO)cc2N2CCC3(CC2)CC3)nc1N1CCO[C@H](C)C1 [Compound 306] | ≤ 100 |
| COc1ccc(NC(=O)c2cnc(S(=O)(=O)NCCO)cc2N2CCC3(CC2)CC3)nc1OCCC(F)(F)F [Compound 309] | ≤ 100 |
| COc1ccc(NC(=O)c2cnc(S(=O)(=O)NCCO)cc2N2CCC3(CC2)CC3)nc1N1CCC2(CC2)C1 [Compound 310] | ≤ 100 |
| COc1ccc(NC(=O)c2cnc(S(=O)(=O)NCCO)cc2N2CCC3(CC2)CC3)nc1OC1CCC1 [Compound 311] | ≤ 100 |
| COc1ccc(NC(=O)c2cnc(S(=O)(=O)NCCO)cc2N2CCC3(CC2)CC3)nc1N1CCC(C)(F)C1 (stereo not drawn) [Compound 312] | ≤ 100 |
| COc1ccc(NC(=O)c2cnc(S(=O)(=O)NCCO)cc2N2CCC3(CC2)CC3)nc1N1CCC(F)CC1 [Compound 313] | ≤ 100 |
| COc1ccc(NC(=O)c2cnc(S(=O)(=O)NCCO)cc2N2CCC3(CC2)CC3)nc1N1CC2CC2C1 (stereo not drawn) [Compound 314] | ≤ 100 |
| COc1ccc(NC(=O)c2cnc(S(=O)(=O)NCCO)cc2N2CCC3(CC2)CC3)nc1NC(C)(C)CO [Compound 315] | ≤ 100 |
| COc1ccc(NC(=O)c2cnc(S(=O)(=O)N[C@H](C)CO)cc2N2CCC3(CC2)CC3)nc1N1CCC(F)(F)CC1 [Compound 318] | ≤ 100 |
| COc1ccc(NC(=O)c2cnc(S(=O)(=O)N[C@@H](C)CO)cc2N2CCC3(CC2)CC3)nc1N1CCO[C@H](C)C1 [Compound 319] | ≤ 100 |
| COc1ccc(NC(=O)c2cnc(S(=O)(=O)N[C@H](C)CO)cc2N2CCC3(CC2)CC3)nc1N1CCO[C@H](C)C1 [Compound 320] | ≤ 100 |
| COc1ccc(C(=O)Nc2ccc(NS(=O)(=O)CCO)cc2N2CCC3(CC2)CC3)nc1N1CC(F)(F)C1 [Compound 324] | ≤ 100 |
| COc1ccc(C(=O)Nc2ccc(NS(=O)(=O)CCO)cc2N2CCC3(CC2)CC3)nc1OCCC(F)(F)F [Compound 325] | ≤ 100 |
| COc1ccc(C(=O)Nc2ccc(NS(=O)(=O)CCO)cc2N2CCC3(CC2)CC3)nc1N1CCC2(CC2)C1 [Compound 326] | ≤ 100 |
| COc1ccc(C(=O)Nc2ccc(NS(=O)(=O)CCO)cc2N2CCC3(CC2)CC3)nc1OC1CCC1 [Compound 327] | ≤ 100 |
| COc1ccc(C(=O)Nc2ccc(NS(=O)(=O)CCO)cc2N2CCC3(CC2)CC3)nc1N1CCC(C)(F)C1 (stereo not drawn) [Compound 328] | ≤ 100 |
| COc1ccc(C(=O)Nc2ccc(NS(=O)(=O)CCO)cc2N2CCC3(CC2)CC3)nc1N1CCC(F)CC1 [Compound 329] | ≤ 100 |

| Compound | IC50 [nM] |
| --- | --- |
| COc1ccc(C(=O)Nc2ccc(NS(=O)(=O)CCO)cc2N2CCC3(CC2)CC3)nc1N1CC2CC2C1 (stereo not drawn) [Compound 330] | ≤ 100 |
| COc1ccc(C(=O)Nc2ccc(NS(=O)(=O)CCO)cc2N2CCC3(CC2)CC3)nc1NC(C)(C)CO [Compound 331] | ≤ 100 |
| COc1ccc(C(=O)Nc2ccc(NS(=O)(=O)[C@@H](C)CO)cc2N2CCC3(CC2)CC3)nc1N1CCC(F)(F)CC1 [Compound 333] | ≤ 100 |
| COc1ccc(C(=O)Nc2ccc(NS(=O)(=O)[C@H](C)CO)cc2N2CCC3(CC2)CC3)nc1N1CCC(F)(F)CC1 [Compound 334] | ≤ 100 |
| COc1ccc(C(=O)Nc2ccc(NS(=O)(=O)[C@H](C)CO)cc2N2CCC3(CC2)CC3)nc1N1CCO[C@H](C)C1 [Compound 336] | ≤ 100 |
| COc1ccc(C(=O)Nc2ccc(S(=O)(=O)NCCO)cc2N2CCC3(CC2)CC3)nc1N1CCO[C@H](C)C1 [Compound 338] | ≤ 100 |
| COc1ccc(C(=O)Nc2ccc(S(=O)(=O)NCCO)cc2N2CCC3(CC2)CC3)nc1N1CC(F)(F)C1 [Compound 340] | ≤ 100 |
| COc1ccc(C(=O)Nc2ccc(S(=O)(=O)NCCO)cc2N2CCC3(CC2)CC3)nc1OCCC(F)(F)F [Compound 341] | ≤ 100 |
| COc1ccc(C(=O)Nc2ccc(S(=O)(=O)NCCO)cc2N2CCC3(CC2)CC3)nc1N1CCC2(CC2)C1 [Compound 342] | ≤ 100 |
| COc1ccc(C(=O)Nc2ccc(S(=O)(=O)NCCO)cc2N2CCC3(CC2)CC3)nc1OC1CCC1 [Compound 343] | ≤ 100 |
| COc1ccc(C(=O)Nc2ccc(S(=O)(=O)NCCO)cc2N2CCC3(CC2)CC3)nc1N1CCC(C)(F)C1 (stereo not drawn) [Compound 344] | ≤ 100 |
| COc1ccc(C(=O)Nc2ccc(S(=O)(=O)NCCO)cc2N2CCC3(CC2)CC3)nc1NC(C)(C)CO [Compound 347] | ≤ 100 |
| COc1ccc(C(=O)Nc2ccc(S(=O)(=O)NCCO)cc2N2CCC3(CC2)CC3)nc1N1CCOCC1 [Compound 348] | ≤ 100 |
| COc1ccc(C(=O)Nc2ccc(S(=O)(=O)N[C@@H](C)CO)cc2N2CCC3(CC2)CC3)nc1N1CCC(F)(F)CC1 [Compound 349] | ≤ 100 |
| COc1ccc(C(=O)Nc2ccc(S(=O)(=O)N[C@H](C)CO)cc2N2CCC3(CC2)CC3)nc1N1CCC(F)(F)CC1 [Compound 350] | ≤ 100 |
| COc1ccc(C(=O)Nc2ccc(S(=O)(=O)N[C@@H](C)CO)cc2N2CCC3(CC2)CC3)nc1N1CCO[C@H](C)C1 [Compound 351] | ≤ 100 |
| COc1ccc(C(=O)Nc2ccc(S(=O)(=O)N[C@H](C)CO)cc2N2CCC3(CC2)CC3)nc1N1CCO[C@H](C)C1 [Compound 352] | ≤ 100 |
| COc1ccc(C(=O)Nc2cnc(NS(=O)(=O)CCO)cc2N2CCC3(CC2)CC3)nc1N1CCO[C@H](C)C1 [Compound 354] | ≤ 100 |
| COc1ccc(C(=O)Nc2cnc(NS(=O)(=O)CCO)cc2N2CCC3(CC2)CC3)nc1N1CCO[C@@H](C)C1 [Compound 355] | ≤ 100 |
| COc1ccc(C(=O)Nc2cnc(NS(=O)(=O)CCO)cc2N2CCC3(CC2)CC3)nc1N1CC(F)(F)C1 [Compound 356] | ≤ 100 |
| COc1ccc(C(=O)Nc2cnc(NS(=O)(=O)CCO)cc2N2CCC3(CC2)CC3)nc1N1CC2CC2C1 (stereo not drawn) [Compound 362] | ≤ 100 |
| COc1ccc(C(=O)Nc2cnc(NS(=O)(=O)CCO)cc2N2CCC3(CC2)CC3)nc1NC(C)(C)CO [Compound 363] | ≤ 100 |

Other lines, results leading:

| IC50 [nM] | Compound |
| --- | --- |
| ≤ 100 | COc1ccc(NC(=O)c2cnc(NS(=O)(=O)CCO)cc2N2CCC3(CC2)CC3)nc1OC1CCC1 [Compound 295] |
| ≤ 100 | COc1ccc(NC(=O)c2cnc(NS(=O)(=O)CCO)cc2N2CCC3(CC2)CC3)nc1N1CCC(C)(F)C1 (stereo not drawn) [Compound 296] |
| ≤ 100 | COc1ccc(NC(=O)c2cnc(NS(=O)(=O)CCO)cc2N2CCC3(CC2)CC3)nc1N1CC2CC2C1 (stereo not drawn) [Compound 298] |
| ≤ 100 | COc1ccc(NC(=O)c2cnc(NS(=O)(=O)CCO)cc2N2CCC3(CC2)CC3)nc1N1CCOCC1 [Compound 300] |
| ≤ 100 | COc1ccc(NC(=O)c2cnc(NS(=O)(=O)[C@H](C)CO)cc2N2CCC3(CC2)CC3)nc1N1CCC(F)(F)CC1 [Compound 302] |
| ≤ 100 | COc1ccc(NC(=O)c2cnc(S(=O)(=O)NCCO)cc2N2CCC3(CC2)CC3)nc1N1CCO[C@@H](C)C1 [Compound 307] |
| ≤ 100 | COc1ccc(NC(=O)c2cnc(S(=O)(=O)NCCO)cc2N2CCC3(CC2)CC3)nc1N1CC(F)(F)C1 [Compound 308] |
| ≤ 100 | COc1ccc(NC(=O)c2cnc(S(=O)(=O)NCCO)cc2N2CCC3(CC2)CC3)nc1N1CCOCC1 [Compound 316] |
| ≤ 100 | COc1ccc(NC(=O)c2cnc(S(=O)(=O)N[C@@H](C)CO)cc2N2CCC3(CC2)CC3)nc1N1CCC(F)(F)CC1 [Compound 317] |
| ≤ 100 | COc1ccc(C(=O)Nc2ccc(NS(=O)(=O)CCO)cc2N2CCC3(CC2)CC3)nc1N1CCO[C@H](C)C1 [Compound 322] |
| ≤ 100 | COc1ccc(C(=O)Nc2ccc(NS(=O)(=O)CCO)cc2N2CCC3(CC2)CC3)nc1N1CCO[C@@H](C)C1 [Compound 323] |
| ≤ 100 | COc1ccc(C(=O)Nc2ccc(NS(=O)(=O)CCO)cc2N2CCC3(CC2)CC3)nc1N1CCOCC1 [Compound 332] |
| ≤ 100 | COc1ccc(C(=O)Nc2ccc(NS(=O)(=O)[C@@H](C)CO)cc2N2CCC3(CC2)CC3)nc1N1CCO[C@H](C)C1 [Compound 335] |
| ≤ 100 | COc1ccc(C(=O)Nc2ccc(S(=O)(=O)NCCO)cc2N2CCC3(CC2)CC3)nc1N1CCO[C@@H](C)C1 [Compound 339] |
| ≤ 100 | COc1ccc(C(=O)Nc2ccc(S(=O)(=O)NCCO)cc2N2CCC3(CC2)CC3)nc1N1CCC(F)CC1 [Compound 345] |
| ≤ 100 | COc1ccc(C(=O)Nc2ccc(S(=O)(=O)NCCO)cc2N2CCC3(CC2)CC3)nc1N1CC2CC2C1 (stereo not drawn) [Compound 346] |
| ≤ 100 | COc1ccc(C(=O)Nc2cnc(NS(=O)(=O)CCO)cc2N2CCC3(CC2)CC3)nc1OCCC(F)(F)F [Compound 357] |
| ≤ 100 | COc1ccc(C(=O)Nc2cnc(NS(=O)(=O)CCO)cc2N2CCC3(CC2)CC3)nc1N1CCC2(CC2)C1 [Compound 358] |
| ≤ 100 | COc1ccc(C(=O)Nc2cnc(NS(=O)(=O)CCO)cc2N2CCC3(CC2)CC3)nc1OC1CCC1 [Compound 359] |
| ≤ 100 | COc1ccc(C(=O)Nc2cnc(NS(=O)(=O)CCO)cc2N2CCC3(CC2)CC3)nc1N1CCC(C)(F)C1 (stereo not drawn) [Compound 360] |
| ≤ 100 | COc1ccc(C(=O)Nc2cnc(NS(=O)(=O)CCO)cc2N2CCC3(CC2)CC3)nc1N1CCC(F)CC1 [Compound 361] |
